# Reference: patent US9149038B2, “4-amino-6-(heterocyclic)picolinates and 6-amino-2-(heterocyclic)pyrimidine-4-carboxylates and their use as herbicides” (Dow AgroSciences LLC, priority 2013, dated 2015)
# Where two headings read alike, the source gives them in different places.
# How the values were obtained:
# [1] = test system: Key Broadleaf Weed and Crop Species; test: Post-Emergent Test II: postemergent herbicidal activity, visual rating after 14 d (Table 7); type: in vivo; settings: post-emergence, 336 h; for pest or weed control at 35 g/ha: 35 g ai/ha; for pest or weed control at 70 g/ha: 70 g ai/ha; for pest or weed control at 140 g/ha: 140 g ai/ha
# Summary of the method: (§1)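 Post-emergence foliar spray, 187 L/ha, first/second true leaf stage plants in potting mix (pH 6.0-6.8). Rates: top rate and 2-fold serial dilutions to 1/16×. Solvent-blank controls. Readout: visual % kill at 14 d.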
# [2] = test system: Key Grass and Sedge Weeds as well as Grass Crops; test: Post-Emergent Test II: postemergent herbicidal activity, visual rating after 14 d (Table 8); type: in vivo; settings: post-emergence, 336 h; for pest or weed control at 35 g/ha: 35 g ai/ha; for pest or weed control at 70 g/ha: 70 g ai/ha; for pest or weed control at 140 g/ha: 140 g ai/ha
# Summary of the method: as §1
# [3] = lambsquarters (Chenopodium album), read-out: Visual Growth Reduction (%) 14 Days After Application CHEAL
# [4] = oilseed rape, canola (Brassica napus), read-out: Visual Growth Reduction (%) 14 Days After Application BRSNN
# [5] = redroot pigweed (Amaranthus retroflexus), read-out: Visual Growth Reduction (%) 14 Days After Application AMARE
# [6] = sunflower (Helianthus annuus), read-out: Visual Growth Reduction (%) 14 Days After Application HELAN
# [7] = velvetleaf (Abutilon theophrasti), read-out: Visual Growth Reduction (%) 14 Days After Application ABUTH
# [8] = wild poinsettia (Euphorbia heterophylla), read-out: Visual Growth Reduction (%) 14 Days After Application EPHHL
# [9] = barnyardgrass (Echinochloa crus-galli), read-out: Visual Growth Reduction (%) 14 Days After Application ECHCG
# [10] = giant foxtail (Setaria faberi), read-out: Visual Growth Reduction (%) 14 Days After Application SETFA
# [11] = maize, corn (Zea mays), read-out: Visual Growth Reduction (%) 14 Days After Application ZEAMX
# [12] = rice (Oryza sativa), read-out: Visual Growth Reduction (%) 14 Days After Application ORYSA
# [13] = wheat, spring (Triticum aestivum), read-out: Visual Growth Reduction (%) 14 Days After Application TRZAS
# [14] = yellow nutsedge (Cyperus esculentus), read-out: Visual Growth Reduction (%) 14 Days After Application CYPES
SMILES,"pest or weed control at 35 g/ha [1, 3] [%]","pest or weed control at 70 g/ha [1, 3] [%]","pest or weed control at 140 g/ha [1, 3] [%]","pest or weed control at 35 g/ha [1, 4] [%]","pest or weed control at 70 g/ha [1, 4] [%]","pest or weed control at 140 g/ha [1, 4] [%]","pest or weed control at 35 g/ha [1, 5] [%]","pest or weed control at 70 g/ha [1, 5] [%]","pest or weed control at 140 g/ha [1, 5] [%]","pest or weed control at 35 g/ha [1, 6] [%]","pest or weed control at 70 g/ha [1, 6] [%]","pest or weed control at 140 g/ha [1, 6] [%]","pest or weed control at 35 g/ha [1, 7] [%]","pest or weed control at 70 g/ha [1, 7] [%]","pest or weed control at 140 g/ha [1, 7] [%]","pest or weed control at 35 g/ha [1, 8] [%]","pest or weed control at 70 g/ha [1, 8] [%]","pest or weed control at 140 g/ha [1, 8] [%]","pest or weed control at 35 g/ha [2, 9] [%]","pest or weed control at 70 g/ha [2, 9] [%]",further results
COC(=O)c1nc(-c2ccc3c(c2)OC(F)(F)O3)c(F)c(N)c1Cl [Compound 6],95 to 100,95 to 100,95 to 100,75 to 84,85 to 94,85 to 94,75 to 84,75 to 84,95 to 100,85 to 94,85 to 94,95 to 100,95 to 100,95 to 100,95 to 100,85 to 94,85 to 94,95 to 100,95 to 100,95 to 100,"pest or weed control at 140 g/ha [2, 9]: 95 to 100%; pest or weed control at 35 g/ha [2, 10]: 60 to 74%; pest or weed control at 70 g/ha [2, 10]: 75 to 84%; pest or weed control at 140 g/ha [2, 10]: 85 to 94%; pest or weed control at 35 g/ha [2, 11]: 85 to 94%; pest or weed control at 70 g/ha [2, 11]: 85 to 94%; pest or weed control at 140 g/ha [2, 11]: 85 to 94%; pest or weed control at 35 g/ha [2, 12]: 30 to 44%; pest or weed control at 70 g/ha [2, 12]: 45 to 59%; pest or weed control at 140 g/ha [2, 12]: 45 to 59%; pest or weed control at 35 g/ha [2, 13]: 45 to 59%; pest or weed control at 70 g/ha [2, 13]: 60 to 74%; pest or weed control at 140 g/ha [2, 13]: 60 to 74%; pest or weed control at 35 g/ha [2, 14]: 95 to 100%; pest or weed control at 70 g/ha [2, 14]: 95 to 100%; pest or weed control at 140 g/ha [2, 14]: 95 to 100%"
Nc1c(Cl)c(C(=O)O)nc(-c2ccc3c(c2F)OC(F)(F)O3)c1Cl [Compound 5],0 to 29,0 to 29,0 to 29,45 to 59,60 to 74,60 to 74,0 to 29,0 to 29,0 to 29,30 to 44,30 to 44,45 to 59,0 to 29,0 to 29,0 to 29,0 to 29,0 to 29,0 to 29,0 to 29,0 to 29,"pest or weed control at 140 g/ha [2, 9]: 0 to 29%; pest or weed control at 35 g/ha [2, 10]: 0 to 29%; pest or weed control at 70 g/ha [2, 10]: 0 to 29%; pest or weed control at 140 g/ha [2, 10]: 0 to 29%; pest or weed control at 35 g/ha [2, 11]: 0 to 29%; pest or weed control at 70 g/ha [2, 11]: 0 to 29%; pest or weed control at 140 g/ha [2, 11]: 0 to 29%; pest or weed control at 35 g/ha [2, 12]: 0 to 29%; pest or weed control at 70 g/ha [2, 12]: 0 to 29%; pest or weed control at 140 g/ha [2, 12]: 0 to 29%; pest or weed control at 35 g/ha [2, 13]: 0 to 29%; pest or weed control at 70 g/ha [2, 13]: 0 to 29%; pest or weed control at 140 g/ha [2, 13]: 0 to 29%; pest or weed control at 35 g/ha [2, 14]: 0 to 29%; pest or weed control at 70 g/ha [2, 14]: 0 to 29%; pest or weed control at 140 g/ha [2, 14]: 0 to 29%"
COC(=O)c1nc(-c2ccc3c(c2)OC(F)(F)O3)nc(N)c1OC [Compound 62],0 to 29,0 to 29,0 to 29,45 to 59,45 to 59,60 to 74,0 to 29,0 to 29,0 to 29,85 to 94,75 to 84,95 to 100,45 to 59,85 to 94,85 to 94,95 to 100,95 to 100,95 to 100,85 to 94,85 to 94,"pest or weed control at 140 g/ha [2, 9]: 95 to 100%; pest or weed control at 35 g/ha [2, 10]: 0 to 29%; pest or weed control at 70 g/ha [2, 10]: 30 to 44%; pest or weed control at 140 g/ha [2, 10]: 60 to 74%; pest or weed control at 35 g/ha [2, 11]: 95 to 100%; pest or weed control at 70 g/ha [2, 11]: 95 to 100%; pest or weed control at 140 g/ha [2, 11]: 95 to 100%; pest or weed control at 35 g/ha [2, 12]: 0 to 29%; pest or weed control at 70 g/ha [2, 12]: 0 to 29%; pest or weed control at 140 g/ha [2, 12]: 0 to 29%; pest or weed control at 35 g/ha [2, 13]: 0 to 29%; pest or weed control at 70 g/ha [2, 13]: 0 to 29%; pest or weed control at 140 g/ha [2, 13]: 0 to 29%; pest or weed control at 35 g/ha [2, 14]: 95 to 100%; pest or weed control at 70 g/ha [2, 14]: 95 to 100%; pest or weed control at 140 g/ha [2, 14]: 95 to 100%"
COC(=O)c1nc(-c2ccc3c(c2)OC(F)(F)O3)nc(N)c1Cl [Compound 60],60 to 74,75 to 84,85 to 94,45 to 59,60 to 74,60 to 74,0 to 29,30 to 44,45 to 59,75 to 84,75 to 84,75 to 84,30 to 44,60 to 74,75 to 84,75 to 84,75 to 84,85 to 94,60 to 74,75 to 84,"pest or weed control at 140 g/ha [2, 9]: 85 to 94%; pest or weed control at 35 g/ha [2, 10]: 30 to 44%; pest or weed control at 70 g/ha [2, 10]: 60 to 74%; pest or weed control at 140 g/ha [2, 10]: 75 to 84%; pest or weed control at 35 g/ha [2, 11]: 60 to 74%; pest or weed control at 70 g/ha [2, 11]: 75 to 84%; pest or weed control at 140 g/ha [2, 11]: 85 to 94%; pest or weed control at 35 g/ha [2, 12]: 0 to 29%; pest or weed control at 70 g/ha [2, 12]: 0 to 29%; pest or weed control at 140 g/ha [2, 12]: 0 to 29%; pest or weed control at 35 g/ha [2, 13]: 45 to 59%; pest or weed control at 70 g/ha [2, 13]: 60 to 74%; pest or weed control at 140 g/ha [2, 13]: 60 to 74%; pest or weed control at 35 g/ha [2, 14]: 75 to 84%; pest or weed control at 70 g/ha [2, 14]: 85 to 94%; pest or weed control at 140 g/ha [2, 14]: 85 to 94%"
